The values that follow come from publication PMC4105567, “Aurora Kinases as Druggable Targets in Pediatric Leukemia: Heterogeneity in Target Modulation Activities and Cytotoxicity by Diverse Novel Therapeutic Agents” (PLoS ONE, 2014).

Assay type in all cases: cell-based, human
Assay [1] deals with KOPN8 B-ALL cell line. Briefly: Cytotoxicity assay, KOPN8. The conditions noted are these: four days in culture, Alamar blue assay or automated microscopy, ± SD, three experiments. The gist of the method:
(§1)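 Cells in Opti-MEM with 10% heat-inactivated FBS and 0.05 mM 2-mercaptoethanol were seeded at 1×10^4 per well with inhibitor (1×10^−6 to 10 µM final, triplicate) or DMSO for 4 days at 37°C. Survival was measured by Alamar blue absorbance (570–620 nm) or bright-field cell counting, as percent of vehicle control.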
(In general: The colour change of resazurin is a common sign of viable cells or microbes.)

In assay [2] the test system is Molt-3 T-ALL cell line. Briefly: Cytotoxicity assay, Molt-3. The conditions noted are these: T-ALL cell line Molt-3, four days in culture, Alamar blue assay or automated microscopy, ± SD, three experiments. The gist of the method:
as §1

For assay [3], the system named is MV4-11 AML cell line. Briefly: Cytotoxicity assay, MV4-11. Conditions: AML cell line MV4-11, four days in culture, Alamar blue assay or automated microscopy, ± SD, three experiments. Summed up:
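1×10^4 cells/well, Opti-MEM + 10% FBS; inhibitor 1×10^−6–10 µM final vs DMSO, triplicate; 4 d, 37°C, 5% CO2. Viability by Alamar blue (A570–620) or Celigo direct cell count; % survival = treated/control ×100.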

Assay [4] relates to NB4 APML cell line. Briefly: Cytotoxicity assay, NB4. Conditions: four days in culture, Alamar blue assay or automated microscopy, ± SD, three experiments. The gist of the method: as §1
In assay [5] the test system is HL-60 APML cell line. Briefly: Cytotoxicity assay, HL-60. Conditions: APML cell line HL-60, four days in culture, Alamar blue assay or automated microscopy, ± SD, three experiments. The gist of the method:
as §1

The subject of assay [6] is HL-60 RA APML cell line. Briefly: Cytotoxicity assay, HL-60 RA. Conditions: APML cell line HL-60 RA, four days in culture, Alamar blue assay or automated microscopy, ± SD, three experiments. Summed up:
as §1

In assay [7] the test system is Bone Marrow Stroma. Briefly: Cytotoxicity assay, bone marrow stroma. The conditions noted are these: bone marrow stroma (control for non-leukemia cytotoxicity), four days in culture, ± SD, three experiments.
For assay [8], the system named is Patient #1 B-ALL primary leukemia cells. Briefly: Cytotoxicity assay, primary sample Patient #1. Conditions: four days in culture, Alamar blue assay or automated microscopy, one complete study. Summed up:
(§2)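 Ficoll-isolated primary leukemic white cells (1×10^4 per well) in Opti-MEM exposed in triplicate to Aurora kinase inhibitors at 1×10^−6 to 10 µM or DMSO for 4 days. Survival measured by Alamar blue absorbance (570–620 nm) or bright-field direct cell counting, as percent of vehicle control.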

Assay [9] deals with Patient #3 AML/CML primary leukemia cells. Briefly: Cytotoxicity assay, primary sample Patient #3. Conditions: four days in culture, Alamar blue assay or automated microscopy, one complete study. The gist of the method: as §2
The test system of assay [10] is Patient #4 infant leukemia primary cells. Briefly: Cytotoxicity assay, primary sample Patient #4. Conditions: four days in culture, Alamar blue assay or automated microscopy, one complete study. Summed up: as §2
Assay [11] relates to Patient #5 ALL/AML primary leukemia cells. Briefly: Cytotoxicity assay, primary sample Patient #5. The conditions noted are these: primary sample, four days in culture, Alamar blue assay or automated microscopy, one complete study, read-out: IC50, Patient #5 ALL/AML. Summed up:
as §2

The subject of assay [12] is normal cells versus leukemia cell lines. Briefly: Comparison of cytotoxicity IC50 values, normal cells versus leukemia cell lines. Conditions: normal lymphocytes and bone marrow stroma versus leukemia cell lines of Table 2.

Where two headings read alike, the source gives them in different places.

In the case of `CCS(=O)(=O)Nc1ccc2c(c1)/C(=C(/Nc1ccc(CN3CCCCC3)cc1)c1ccccc1)C(=O)N2` [Hesperadin], the IC50 in assay [1] (Homo sapiens, KOPN-8, 96 h) is 0.1 nM; in [2] (Homo sapiens, 96 h) it was under 0.001 nM; in assay [3] (Homo sapiens, 96 h), 0.005 nM; in assay [4] (Homo sapiens, 96 h) it was 4 ± 1 nM; in assay [5] (Homo sapiens, 96 h), 6 ± 3 nM; in [6] (Homo sapiens, 96 h), 0.05 nM. Also, the IC50 stood at 2000 ± 900 nM in assay [7] (Homo sapiens, 96 h); 0.04 nM in [8] (Homo sapiens, 96 h); 3000 nM in assay [9] (Homo sapiens, 96 h); 2000 nM in assay [10] (Homo sapiens, 96 h); 0.01 nM in assay [11] (Homo sapiens, 96 h). Also, the “IC50 values for the normal cells compared with IC50 values for the leukemia cell lines (potential therapeutic window)” value in [12] is “higher than the IC50 values for the leukemia cell lines”.
On to `CCN1CCN(C(=O)Cc2ccc(Nc3ncc(F)c(Nc4ccc(C(=O)Nc5ccccc5Cl)cc4)n3)cc2)CC1` [Aurora A Inhibitor I], for which the IC50 in assay [1] is 800 ± 50 nM; in [2], 300 ± 200 nM; in [3], 400 ± 100 nM; in assay [4], 700 ± 50 nM; in [5] it was 2000 ± 1000 nM; in assay [6] it was 1000 ± 600 nM. For the same compound, the IC50 is 4000 ± 500 nM in assay [7]; 800 nM in assay [8]; 5000 nM in assay [9]; 8000 nM in [10]; 6 nM in assay [11]. In addition, the “IC50 values for the normal cells compared with IC50 values for the leukemia cell lines (potential therapeutic window)” value in assay [12] is “lower than the IC50 values for the normal cells, but not as pronounced”.
`O=C(Nc1c[nH]nc1-c1nc2ccc(CN3CCOCC3)cc2[nH]1)NC1CC1` [AT9283]: the IC50 in [1] (Homo sapiens, KOPN-8, 96 h) turned out to be 2 ± 1 nM; in assay [2] (Homo sapiens, 96 h) it was 0.4 nM; in assay [3] (Homo sapiens, 96 h) it was 3 ± 2 nM; in assay [4] (Homo sapiens, 96 h) it was 60 ± 30 nM; in assay [5] (Homo sapiens, 96 h) it was 50 ± 20 nM; in [6] (Homo sapiens, 96 h), 3 ± 2 nM. Also, the IC50 was 5000 ± 2000 nM in [7] (Homo sapiens, 96 h); 3 nM in [8] (Homo sapiens, 96 h); 1000 nM in assay [9] (Homo sapiens, 96 h); 5000 nM in assay [10] (Homo sapiens, 96 h); 0.3 nM in [11] (Homo sapiens, 96 h). The “IC50 values for the normal cells compared with IC50 values for the leukemia cell lines (potential therapeutic window)” value in [12] is on record as “higher than the IC50 values for the leukemia cell lines”.
